Experimental data published in patent EP0796090B1, “CROSS-LINKED MICROPARTICLES AND THEIR USE AS T[…]” (Elan Drug Delivery Limited, priority 1994, dated 1996).

Test system: HSN cell line
Assay: In vitro cytotoxic activity, MTT assay
Assay type: cell-based, rat
Conditions: HSN cells; for Emax: Rattus norvegicus, read-out: maximum reduction in cell activity
Experimental: Cytotoxic activity of the drug-microcapsule conjugates of Examples 5 to 7 was measured in vitro. The HSN cell line was used. This is a chemically-induced rat colonic sarcoma, which produces liver tumours in an animal model with a vascular pattern similar to that seen in human colorectal liver metastases. Cell kill was measured indirectly using MTT. This is reduced in active mitochondria to formazan, a coloured metabolite. HSN cells were incubated in multi-well plates to which was added a control dose of drug or drug-microcapsule lysate. After a range of exposure times, MTT was added to the wells and the concentration of formazan measured as an indication of […]. The assay was calibrated for this cell line against a range of known cell numbers.

Row | Molecule | maximum reduction in cell activity | steepest part of the dose response curve [µg/mL] | Emax [%]
1 | 2-fluoro-5-deoxyuridine [Example 5-FUdR] | approximately 80% | – | –
2 | COc1cccc2c1C(=O)c1c(O)c3c(c(O)c1C2=O)C[C@@](O)(C(=O)CO)C[C@@H]3O[C@H]1C[C@H](N)[C@H](O)[C@H](C)O1 [doxorubicin] | – | ≤ 0.1 | ~80
3 | CN(Cc1cnc2nc(N)nc(N)c2n1)c1ccc(C(=O)N[C@@H](CCC(=O)O)C(=O)O)cc1 [methotrexate] | – | – | ~80
